# Results published in patent US7432302B2, “Composition containing polyamine transport inhibitor and use thereof” (MediQuest Therapeutics, Inc., priority 2001, dated 2008).
# Read-outs that look alike come from different tables or passages of the source.
# Experiments:
# [1] = biological target: T1, ornithine decarboxylase (ODC) (Homo sapiens, UniProt P11926); conditions: reversible / cofactor-interaction ODC inhibitors, literature; cited from earlier work
# T1 sequence (P11926 1-461): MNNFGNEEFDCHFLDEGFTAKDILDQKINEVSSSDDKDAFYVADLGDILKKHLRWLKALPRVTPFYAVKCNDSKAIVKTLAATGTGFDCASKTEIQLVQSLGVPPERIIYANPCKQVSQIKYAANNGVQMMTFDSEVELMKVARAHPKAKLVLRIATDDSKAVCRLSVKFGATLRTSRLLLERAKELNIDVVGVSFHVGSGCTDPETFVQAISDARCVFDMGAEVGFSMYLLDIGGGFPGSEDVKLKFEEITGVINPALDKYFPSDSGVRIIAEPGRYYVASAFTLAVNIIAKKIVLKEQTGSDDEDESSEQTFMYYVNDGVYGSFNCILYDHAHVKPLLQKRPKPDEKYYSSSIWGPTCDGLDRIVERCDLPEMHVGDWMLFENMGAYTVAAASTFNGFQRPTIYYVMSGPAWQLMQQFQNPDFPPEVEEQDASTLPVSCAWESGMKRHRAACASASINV
# [2] = tested on: cell growth when given with DFMO; test: EC50 determined as disclosed in Weeks et al. (cell growth when given with DFMO); assay type: cell-based; conditions: determined as in Weeks et al. Exp Cell Res. 2000
# [3] = tested on: hair regrowth; test: Animal hair growth inhibition assay; assay type: in vivo, mice
# [4] = biological target: T2, spermidine synthase (Homo sapiens, UniProt P19623); conditions: cited from earlier work
# T2 sequence (P19623 1-302): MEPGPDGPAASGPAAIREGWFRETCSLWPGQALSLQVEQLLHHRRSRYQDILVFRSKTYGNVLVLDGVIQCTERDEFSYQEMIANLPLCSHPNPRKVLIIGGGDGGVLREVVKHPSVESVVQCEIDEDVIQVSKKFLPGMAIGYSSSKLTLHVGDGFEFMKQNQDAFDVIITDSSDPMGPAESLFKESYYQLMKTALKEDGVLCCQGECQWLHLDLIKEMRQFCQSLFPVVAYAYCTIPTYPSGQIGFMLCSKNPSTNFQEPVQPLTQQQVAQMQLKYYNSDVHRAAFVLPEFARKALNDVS
# [5] = tested on: cell growth in the presence of DFMO; test: Growth inhibition assay in combination with DFMO; assay type: cell-based; conditions: 144 h; also: 0.5 µM SPD
# Protocol: Medias were obtained from Mediatech, Inc. (Hemdon, Va.) and serums from Gibco BRL (Gaithersburg, Md.). 50 U/ml penicillin, 50 μg/ml streptomycin and 2 mM L-glutamine (all from Bio Whittaker, Walkersville, Md.) were included in all cultures. […] When cells were cultured with polyamines or ORI compounds, 1 mM aminoguanidine (AG; Sigma) was included to inhibit serum amine oxidase activity.
# [6] = tested on: epidermal ornithine decarboxylase activity; conditions: topical application of 20 μmole 2 hr after the TPA treatment; cited from earlier work
# [7] = tested on: cultured hair follicles; conditions: 50 μM polyamine added to MGBG (10 mM) treated cultured hair follicles; cited from earlier work
# [8] = rats, 10-day treatment with drug in drinking water; cited from earlier work
# [9] = tested on: levels of spermidine or spermine in rat prostate; conditions: oral, 0.02% or 0.1% in drinking water; cited from earlier work
# [10] = tested on: fiber growth; conditions: sheep treated systemically; cited from earlier work
# [11] = tested on: cultured follicles; conditions: cited from earlier work
# [12] = tested on: L1210 leukemia cells; conditions: cited from earlier work
# [13] = compound with DFMO at 2%, 70% ethanol, pH 7.0, applied once a day for 18 days
# [14] = no additional biosynthesis inhibitor (None, or antizyme inducer; agmatine 2%), once a day for 18 days
# [15] = mutant L1210 cells with greatly reduced polyamine transport activity
smiles,measurement,setting,value
NC/C=C/C(N)C(=O)O (stereo not drawn) [trans-3-dehydroornithine],Ki,[1],4400 nM
NCCCON [1-Aminooxy-3-aminopropane],Ki,[1],3.2 nM
CC(C)(C)CCNCCCC[C@H](N)C(=O)NCCCNCCCCNCCCN [MQT 4],EC50,[2],1600 nM
same,% HGI,[3]; [13],63%
same,% HGI,[3]; [14],66%
CC(N)CCON (centres unmarked) [1-Aminooxy-3-aminobutane],Ki,[1],2.8 nM
NC1CC2CCC1C2 (stereo not drawn) [exo-2-aminonorbornane],IC50,[4]; read-out: IC50,5500 nM
CCCC(CCC)NCCCC[C@H](N)C(=O)NCCCNCCCCNCCCN [VA26],EC50,[5]; read-out: Ave EC50 Value,4140 nM
CC(C)[C@@H]1CC[C@@H](C)CC1NCCCC[C@@H](N)C(=O)NCCCNCCCCNCCCN (some centres unmarked) [VB28],EC50,[5]; read-out: Ave EC50 Value,1450 nM
NCCCNCCCCNCCCNC(=O)[C@H](N)CCCCNC(=O)c1ccc(-c2ccccc2)cc1 [IB26],EC50,[5]; read-out: Ave EC50 value,1100 nM
NCCCNCCCCNCCCNC(=O)[C@@H](N)CCCCNCC1CCCCC1 [MQT 3],EC50,[2],780 nM
same,% HGI,"[3]; compound with BHT 0.5%, 70% ethanol, pH 7.0, once a day for 18 days",68%
same,% HGI,[3]; [13],93%
CCCCCCCC(=O)NCCCC[C@@H](N)C(=O)NCCCNCCCCNCCCN [IB7],EC50,[5]; read-out: Ave EC50 value,13000 nM
C[C@](N)(CCCN)C(=O)O [α-methylornithine],Ki,[1],40000 nM
CCCCCCCCCCCCCCCC(=O)NCCCC[C@@H](N)C(=O)NCCCNCCCCNCCCN [IB4],EC50,[5]; read-out: Ave EC50 value,84 nM
NCCCC(NN)C(=O)O (stereo not drawn) [α-Hydrazinoornithine],Ki,[1],500 nM
"N=C(N)NCCCCN [Agmatine, reference compound]",% HGI,[3]; [14],30%
CCCCCCCCC(=O)NCCCC[C@@H](N)C(=O)NCCCNCCCCNCCCN [IB6],EC50,[5]; read-out: Ave EC50 value,2200 nM
NCCCNCCCCNCCCNC(=O)[C@H](N)CCCCNC(=O)CC1CC2CCC1C2 (some centres unmarked) [IB37],EC50,[5]; read-out: Ave EC50 value,41000 nM
"NC1CCC(N)(C(=O)O)CC1 (stereo not drawn) [trans-1,4-diaminocyclohexane-1-carboxylic acid]",Ki,[1],70000 nM
CCCCCCC(=O)NCCCC[C@@H](N)C(=O)NCCCNCCCCNCCCN [IB8],EC50,[5]; read-out: Ave EC50 value,3500 nM
CC(C)(C)CC(=O)NCCCC[C@@H](N)C(=O)NCCCNCCCCNCCCN [IB36],EC50,[5]; read-out: Ave EC50 value,27000 nM
CC(C)(C)CCNCCCC[C@@H](N)C(=O)NCCCNCCCCNCCCN [IVB22],EC50,[5]; read-out: Ave EC50 Value,680 nM
NCCCCNCCCN [spermidine],inhibition of the induction of ODC activity,[6],90%
same,recovery of DNA synthesis,[7],Complete recovery of DNA synthesis
C=CCCCN [5-amino-1-pentene],IC50,[4],respectable activity
CC(C)[C@@H]1CC[C@@H](C)C[C@H]1OCC(=O)NCCCC[C@@H](N)C(=O)NCCCNCCCCNCCCN [IB38],EC50,[5]; read-out: Ave EC50 value,13000 nM
CC(C)CNCCCC[C@@H](N)C(=O)NCCCNCCCCNCCCN [IVB23],EC50,[5]; read-out: Ave EC50 Value,1790 nM
CC(C)CCNCCCC[C@@H](N)C(=O)NCCCNCCCCNCCCN [IVB21],EC50,[5]; read-out: Ave EC50 Value,1320 nM
CC(C)C(=O)NCCCC[C@@H](N)C(=O)NCCCNCCCCNCCCN [IB33],EC50,[5]; read-out: Ave EC50 value,8400 nM
NCCCNCCCCNCCCNC(=O)[C@H](N)CCCCNCc1ccc(-c2ccccc2)cc1 [IVB33],EC50,[5]; read-out: Ave EC50 Value,1380 nM
CCCCCC(=O)NCCCC[C@@H](N)C(=O)NCCCNCCCCNCCCN [IB9],EC50,[5]; read-out: Ave EC50 value,12000 nM
"CC1CCC(N)CC1 (centres unmarked) [Compound 4MCHA, 4-methylcyclohexylamine]",LD50,[8],more than 250 mg/kg
same,levels of spermidine or spermine in rat prostate,[9],significantly reduced levels
"NCCC[C@](N)(C(=O)O)C(F)F [DFMO, α-difluoromethylornithine]",fiber diameter increase,[10],14%
same,fiber growth decline,[10],10%
same,effect on the growth of cultured follicles,"[11]; in culture media: DFMO 500 μM, N-butyl-1,3-diaminopropane 50 μM",no effect
same,increase in median survival time,[12]; [15],87%
same,mice cured,[12]; [15],13 of 40
same,increase in median survival time,[12]; parental L1210 cell line,22%
same,% HGI,"[3]; biosynthesis inhibitor alone, compound None (DFMO at 2%; Vaniqua 13.9% DFMO)",28%
"CC(C)CC(C)NCCCCC(N)C(=O)NCCCNCCCCNCCCN (single isomer, unassigned) [VA21]",EC50,[5]; read-out: Ave EC50 Value,650 nM
same,EC50,[5]; read-out: Ave EC50 value,650 nM
NCCCNCCCCNCCCNC(=O)[C@H](N)CCCCNCC1CCCCC1 [IVB27],EC50,[5]; read-out: Ave EC50 Value,610 nM
CCCCCCCCCCCCCCCC(=O)NCCCC[C@H](N)C(=O)NCCCNCCCCNCCCN [MQT 2],EC50,[2],44 nM
same,% HGI,[3]; [13],97%
"CC(/C=N/NC(=N)N)=N\NC(=N)N [MGBG, methylglycoxal bis(guanylhydrazone)]","ED50, inhibition of the growth of cultured follicles",[11],~5000 nM
NCCCNCCCCNCCCNC(=O)[C@H](N)CCCCNC(=O)C(c1ccccc1)c1ccccc1 [IB29],EC50,[5]; read-out: Ave EC50 value,2100 nM
NCCCCCCNCCCCCNCCN [MQT 8],% HGI,[3]; [14],53%
"NCCCCCCCN [1,7-diaminoheptane]",inhibition of the induction of ODC activity,[6],90%
CCCCCCCNCCCC[C@H](N)C(=O)NCCCNCCCCNCCCN [MQT 6],EC50,[2],380 nM
same,% HGI,[3]; [13],79%
NCCCNCCCCNCCCN [spermine],inhibition of the induction of ODC activity,[6],90%
same,recovery of DNA synthesis,[7],did not overcome the MGBG-mediated inhibition
CCCCCCNCCCC[C@@H](N)C(=O)NCCCNCCCCNCCCN [IVB5],EC50,[5]; read-out: Ave EC50 Value,710 nM
NCCCNCCCCNCCCNC(=O)[C@H](N)CCCCNC(=O)c1ccco1 [IB25],EC50,[5]; read-out: Ave EC50 value,10000 nM
CCCCCN [1-pentylamine],IC50,[4]; read-out: IC50,3600 nM
CC(C)(C)C(=O)NCCCC[C@@H](N)C(=O)NCCCNCCCCNCCCN [IB34],EC50,[5]; read-out: Ave EC50 value,8500 nM
NCCCNCCCCNCCCNC(=O)[C@H](N)CCCCNCC1CC2C=CC1C2 (some centres unmarked) [IVB25],EC50,[5]; read-out: Ave EC50 Value,890 nM
NCCCNCCCCNCCCNC(=O)[C@H](N)CCCCNC(=O)C12CC3CC(CC(C3)C1)C2 [IB30],EC50,[5]; read-out: Ave EC50 value,2000 nM
NCCCCN [putrescine],inhibition of the induction of ODC activity,[6],50%
CCCCCCCNCCCC[C@@H](N)C(=O)NCCCNCCCCNCCCN [IVB6],EC50,[5]; read-out: Ave EC50 Value,890 nM
CCCCNCCCC[C@@H](N)C(=O)NCCCNCCCCNCCCN [IVB3],EC50,[5]; read-out: Ave EC50 Value,2190 nM
CCCCCCCC(=O)NCCCC[C@H](N)C(=O)NCCCNCCCCNCCCN [MQT 5],EC50,[2],2200 nM
same,% HGI,[3]; [13],47%
CCCCCCCCCCCCCCCCCC(=O)NCCCC[C@@H](N)C(=O)NCCCNCCCCNCCCN [IB2],EC50,[5]; read-out: Ave EC50 value,83 nM
NCCCNCCCCNCCCNC(=O)[C@H](N)CCCCNC(=O)c1ccccc1 [IB24],EC50,[5]; read-out: Ave EC50 value,30000 nM
"NCCCNC1CCCCC1 [APCHA, N-(3-aminopropyl)cyclohexylamine]",LD50,[8],> 500 mg/kg
same,levels of spermidine or spermine in rat prostate,[9],significantly reduced levels
"CCCCN [Compound 1-butylamine, 1-butylamine]",Ki,[4],520 nM
same,IC50,[4]; read-out: IC50,3800 nM
C[C@H]1CC[C@H](N)CC1 [trans-4-methylcyclohexylamine],IC50,[4]; read-out: IC50,1700 nM
NCCCCCCNCCCCCCNCc1ccc(CNCCCN)cc1 [MQT 7],% HGI,[3]; [14],94%
CC(C)=CCC[C@H](C)CCNCCCC[C@@H](N)C(=O)NCCCNCCCCNCCCN [IVB28],EC50,[5]; read-out: Ave EC50 Value,12800 nM
NC1CCCCC1 [cyclohexylamine],IC50,[4]; read-out: IC50,8100 nM
CC(C)(C)CNCCCC[C@@H](N)C(=O)NCCCNCCCCNCCCN [IVB24],EC50,[5]; read-out: Ave EC50 Value,1320 nM
